# Key:
# [1] = compound induced cellular toxicity in HepG2 cells (ATPlite 1Step); type: cell-based; conditions: human, three days, concentration reducing total ATP levels by 50% relative to no drug controls
# Procedure: At day 3, post seeding cells are treated with ATPlite 1Step according to the manufacturer's instructions.
# HBV (2.2.15 cells) = assay: HBV viral product reduction in 2.2.15 cells (qPCR / HBsAg or HBeAg ELISA); type: cell-based; conditions: Hepatitis B virus, 120 h, day 5 post treatment, concentration reducing viral product accumulation in cell lysates or supernatants by 50% relative to no drug controls
# Procedure: 2.2.15 cells are passaged upon attaining confluency in DMEM/F12 media in the presence of 10% FBS, Penn/Strep, and 250 ug/mL G418. Novel compounds are 5 fold serially diluted in DMSO and added to 96 well plates containing 35,000 cells/well at a 1:200 dilution so that the final concentration of DMSO is 0.5%. On day 5, post treatment cell lysates and supernatants are harvested for analysis.
# Cells are lysed using Agilent Sidestep Lysis buffer, diluted 1:100 and quantified via quantitative real time PCR. Commercially available ELISA kits are used to quantitate the viral proteins HBsAg (Alpco) or HBeAg (US Biological) by following the manufacturer's recommended protocol after diluting samples to match the linear range of their respective assays. Irrespective of readout, compound concentrations that reduce viral product accumulation in the cell lysates or supernatants by 50% relative to no drug controls (EC50) are reported; EC50 ranges are as follows: A<0.1 μM; B 0.1-1 μM; C>1 μM.
compound,measurement,setting,value
"Cn1nccc1-c1cc2c(c3occc13)C[C@@H](C(C)(C)C)n1cc(C(=O)O)c(=O)cc1-2 [Example 14, (S)-5-(tert-butyl)-12-(1-methyl-1H-pyrazol-5-yl)-9-oxo-4,9-dihydro-5H-furo[2,3-f]pyrido[2,1-a]isoquinoline-8-carboxylic acid]",CC50 at 3 days,[1],> 25 µM
same,EC50,HBV (2.2.15 cells),< 0.1 µM
"CC(C)(C)[C@@H]1Cc2c(cc(-c3ccsc3)c3ccoc23)-c2cc(=O)c(C(=O)O)cn21 [Example 7, (S)-5-(tert-butyl)-9-oxo-12-(thiophen-3-yl)-4,9-dihydro-5H-furo[2,3-f]pyrido[2,1-a]isoquinoline-8-carboxylic acid]",CC50 at 3 days,[1],10 to 25 µM
same,EC50,HBV (2.2.15 cells),< 0.1 µM
"CC(C)(C)[C@@H]1Cc2c(cc(-c3cnsc3)c3occc23)-c2cc(=O)c(C(=O)O)cn21 [Example 29, (S)-5-(tert-butyl)-12-(isothiazol-4-yl)-9-oxo-4,9-dihydro-5H-furo[3,2-f]pyrido[2,1-a]isoquinoline-8-carboxylic acid]",EC50,HBV (2.2.15 cells),> 1 µM
"CC(C)(C)[C@@H]1Cc2c(cc(-c3cnsc3)c3ccoc23)-c2cc(=O)c(C(=O)O)cn21 [Example 11, (S)-5-(tert-butyl)-12-(isothiazol-4-yl)-9-oxo-4,9-dihydro-5H-furo[2,3-f]pyrido[2,1-a]isoquinoline-8-carboxylic acid]",CC50 at 3 days,[1],> 25 µM
same,EC50,HBV (2.2.15 cells),< 0.1 µM
"CC(C)(C)[C@@H]1Cc2c(cc(N3CCC(F)(F)C3)c3ccoc23)-c2cc(=O)c(C(=O)O)cn21 [Example 19, (S)-5-(tert-butyl)-12-(3,3-difluoropyrrolidin-1-yl)-9-oxo-4,9-dihydro-5H-furo[2,3-f]pyrido[2,1-a]isoquinoline-8-carboxylic acid]",CC50 at 3 days,[1],10 to 25 µM
same,EC50,HBV (2.2.15 cells),< 0.1 µM
"CC(C)(C)[C@@H]1Cc2c(cc(-c3cccs3)c3ccoc23)-c2cc(=O)c(C(=O)O)cn21 [Example 10, (S)-5-(tert-butyl)-9-oxo-12-(thiophen-2-yl)-4,9-dihydro-5H-furo[2,3-f]pyrido[2,1-a]isoquinoline-8-carboxylic acid]",CC50 at 3 days,[1],10 to 25 µM
same,EC50,HBV (2.2.15 cells),< 0.1 µM
"CC(C)(C)[C@@H]1Cc2c(cc(-c3cn[nH]c3)c3occc23)-c2cc(=O)c(C(=O)O)cn21 [Example 27, (S)-5-(tert-butyl)-9-oxo-12-(1H-pyrazol-4-yl)-4,9-dihydro-5H-furo[3,2-f]pyrido[2,1-a]isoquinoline-8-carboxylic acid]",EC50,HBV (2.2.15 cells),> 1 µM
"CC(C)(C)[C@@H]1Cc2c(cc(-c3cnco3)c3occc23)-c2cc(=O)c(C(=O)O)cn21 [Example 22, (S)-5-(tert-butyl)-12-(oxazol-5-yl)-9-oxo-4,9-dihydro-5H-furo[3,2-f]pyrido[2,1-a]isoquinoline-8-carboxylic acid]",EC50,HBV (2.2.15 cells),0.1 to 1 µM
"CC(C)(C)[C@@H]1Cc2c(cc(-c3ccsc3)c3occc23)-c2cc(=O)c(C(=O)O)cn21 [Example 25, (S)-5-(tert-butyl)-9-oxo-12-(thiophen-3-yl)-4,9-dihydro-5H-furo[3,2-f]pyrido[2,1-a]isoquinoline-8-carboxylic acid]",EC50,HBV (2.2.15 cells),> 1 µM
"Cn1ccc(-c2cc3c(c4occc24)C[C@@H](C(C)(C)C)n2cc(C(=O)O)c(=O)cc2-3)n1 [Example 16, (S)-5-(tert-butyl)-12-(1-methyl-1H-pyrazol-3-yl)-9-oxo-4,9-dihydro-5H-furo[2,3-f]pyrido[2,1-a]isoquinoline-8-carboxylic acid]",CC50 at 3 days,[1],10 to 25 µM
same,EC50,HBV (2.2.15 cells),< 0.1 µM
"CC(C)(C)[C@@H]1Cc2c(cc(-c3cscn3)c3ccoc23)-c2cc(=O)c(C(=O)O)cn21 [Example 17, (S)-5-(tert-butyl)-9-oxo-12-(thiazol-4-yl)-4,9-dihydro-5H-furo[2,3-f]pyrido[2,1-a]isoquinoline-8-carboxylic acid]",CC50 at 3 days,[1],> 25 µM
same,EC50,HBV (2.2.15 cells),< 0.1 µM
"CC(C)(C)[C@@H]1Cc2c(cc(N3CCCC3)c3ccoc23)-c2cc(=O)c(C(=O)O)cn21 [Example 18, (S)-5-(tert-butyl)-9-oxo-12-(pyrrolidin-1-yl)-4,9-dihydro-5H-furo[2,3-f]pyrido[2,1-a]isoquinoline-8-carboxylic acid]",CC50 at 3 days,[1],> 25 µM
same,EC50,HBV (2.2.15 cells),< 0.1 µM
"Cn1cc(-c2cc3c(c4ccoc24)C[C@@H](C(C)(C)C)n2cc(C(=O)O)c(=O)cc2-3)cn1 [Example 5, (S)-5-(tert-butyl)-12-(1-methyl-1H-pyrazol-4-yl)-9-oxo-4,9-dihydro-5H-furo[3,2-f]pyrido[2,1-a]isoquinoline-8-carboxylic acid]",CC50 at 3 days,[1],> 25 µM
same,EC50,HBV (2.2.15 cells),> 1 µM
"Cn1nccc1-c1cc2c(c3ccoc13)C[C@@H](C(C)(C)C)n1cc(C(=O)O)c(=O)cc1-2 [Example 4, (S)-5-(tert-butyl)-12-(1-methyl-1H-pyrazol-5-yl)-9-oxo-4,9-dihydro-5H-furo[3,2-f]pyrido[2,1-a]isoquinoline-8-carboxylic acid]",EC50,HBV (2.2.15 cells),< 0.1 µM
"CC(C)(C)[C@@H]1Cc2c(cc(N3CCC(F)(F)C3)c3occc23)-c2cc(=O)c(C(=O)O)cn21 [Example 20, (S)-5-(tert-butyl)-12-(3,3-difluoropyrrolidin-1-yl)-9-oxo-4,9-dihydro-5H-furo[3,2-f]pyrido[2,1-a]isoquinoline-8-carboxylic acid]",EC50,HBV (2.2.15 cells),0.1 to 1 µM
"CC(C)(C)[C@@H]1Cc2c(ccc3occc23)-c2cc(=O)c(C(=O)O)cn21 [Example 31, (S)-5-(tert-butyl)-9-oxo-4,9-dihydro-11-furo[3,2-f]pyrido[2,1-a]isoquinoline-8-carboxylic acid]",EC50,HBV (2.2.15 cells),> 1 µM
"CC(C)(C)[C@@H]1Cc2c(cc(-c3cccs3)c3occc23)-c2cc(=O)c(C(=O)O)cn21 [Example 24, (S)-5-(tert-butyl)-9-oxo-12-(thiophen-2-yl)-4,9-dihydro-5H-furo[3,2-f]pyrido[2,1-a]isoquinoline-8-carboxylic acid]",EC50,HBV (2.2.15 cells),> 1 µM
"Cn1ccc(-c2cc3c(c4ccoc24)C[C@@H](C(C)(C)C)n2cc(C(=O)O)c(=O)cc2-3)n1 [Example 23, (S)-5-(tert-butyl)-12-(1-methyl-1H-pyrazol-3-yl)-9-oxo-4,9-dihydro-5H-furo[3,2-f]pyrido[2,1-a]isoquinoline-8-carboxylic acid]",EC50,HBV (2.2.15 cells),> 1 µM
"CC(C)(C)[C@@H]1Cc2c(cc(N3CCCC3)c3occc23)-c2cc(=O)c(C(=O)O)cn21 [Example 21, (S)-5-(tert-butyl)-9-oxo-12-(pyrrolidin-1-yl)-4,9-dihydro-5H-furo[3,2-f]pyrido[2,1-a]isoquinoline-8-carboxylic acid]",EC50,HBV (2.2.15 cells),0.1 to 1 µM
"CC(C)(C)[C@@H]1Cc2c(cc(-c3ccn[nH]3)c3occc23)-c2cc(=O)c(C(=O)O)cn21 [Example 28, (S)-5-(tert-butyl)-9-oxo-12-(1H-pyrazol-5-yl)-4,9-dihydro-5H-furo[3,2-f]pyrido[2,1-a]isoquinoline-8-carboxylic acid]",EC50,HBV (2.2.15 cells),> 1 µM
"CC(C)(C)[C@@H]1Cc2c(cc(-c3ccco3)c3occc23)-c2cc(=O)c(C(=O)O)cn21 [Example 26, (S)-5-(tert-butyl)-12-(furan-2-yl)-9-oxo-4,9-dihydro-5H-furo[3,2-f]pyrido[2,1-a]isoquinoline-8-carboxylic acid]",EC50,HBV (2.2.15 cells),> 1 µM
"CC(C)(C)[C@@H]1Cc2c(cc(-c3cscn3)c3occc23)-c2cc(=O)c(C(=O)O)cn21 [Example 30, (S)-5-(tert-butyl)-9-oxo-12-(thiazol-4-yl)-4,9-dihydro-5H-furo[3,2-f]pyrido[2,1-a]isoquinoline-8-carboxylic acid]",EC50,HBV (2.2.15 cells),> 1 µM
